Assay results taken from patent US6632621B1, “G protein-coupled receptor-like receptors and modulators thereof” (priority 1999, dated 2003).
Like-named read-outs stand apart in the source and are kept apart here. Where no end group is shown, it is not given here.

Legend:
human D2 receptor = human D2 receptor (Homo sapiens, UniProt P14416); conditions: 37° C. versus temperature-shift transfection protocol
Method: (§1) Aliquots of cell membranes prepared as described above and stored at −70° C. were thawed, homogenized, and diluted into buffer containing 20 mM HEPES, pH 7.4, 10 mM MgCl2, 1 mM EDTA, and 100 mM NaCl at a concentration of 10-50 μg/ml. Reaction mixtures were prepared in 96-well polypropylene plate, Nunc. Twenty microliters of a 10× putative modulator compound (including but not limited to potential peptide ligands) solution or a water control (20 μl), 18.2 µM GDP (0.11 ml, 10 μM final concentration), and a membrane preparation were mixed and placed on ice. The modulator/ligand-GDP-membrane mixtures were incubated for 20 minutes at room temperature on a shaking platform and then placed on ice.

CEGPCR16 receptor [1] = target: T1, CEGPCR16 receptor (Caenorhabditis elegans, UniProt Q9XXU4); assay: [35S]GTPγS binding assay, CEGPCR16 expressed in CHO cells; type: biochemical, C. elegans; conditions: membranes from cells transfected and maintained at 37° C.
T1 sequence (Q9XXU4 1-365): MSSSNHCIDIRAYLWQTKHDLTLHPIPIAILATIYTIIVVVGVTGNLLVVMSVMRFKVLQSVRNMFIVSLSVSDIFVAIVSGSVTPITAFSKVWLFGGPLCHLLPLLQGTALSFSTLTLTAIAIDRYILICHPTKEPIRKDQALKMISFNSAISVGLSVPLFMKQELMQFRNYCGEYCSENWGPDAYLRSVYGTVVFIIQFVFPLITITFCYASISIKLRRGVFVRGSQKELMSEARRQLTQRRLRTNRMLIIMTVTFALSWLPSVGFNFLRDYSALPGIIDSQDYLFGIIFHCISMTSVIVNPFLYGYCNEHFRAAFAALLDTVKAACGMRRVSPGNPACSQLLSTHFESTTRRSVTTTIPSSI

CEGPCR16 receptor [2] = target: T1, CEGPCR16 receptor; assay: as above; type: biochemical, C. elegans
Method: (§2) Recombinant pCR3.1 clones encoding invertebrate GPCR-like receptors were transformed into wild-type CHO-K1 cells and functional expression was achieved using a temperature-shift incubation protocol. The CHO-K1 cells were cultured at 37° C. in a humidified atmosphere of 5% CO2 in air in DMEM medium supplemented with 10% heat-inactivated fetal bovine serum (i.e., FBS), 10 μg/ml gentamicin, and 0.1 mM nonessential amino acids to give complete DMEM medium. Additionally, for incubations at temperatures lower than 37° C., the medium was fortified with 10 mM HEPES (pH 7.4). Cells were transfected with recombinant pCR3.1 clones containing GPCR-like receptor DNAs, using LipofectAMINE PLUS™, essentially according to the manufacturer's instructions. […] In separate plastic tubes, PLUS (20 μl/plate; Life Technologies) was added to 0.75 ml/plate of recombinant plasmid DNA in OptiMEM (5 μg/plate; Gibco/BRL—Life Technologies), mixed and incubated at room temperature for 15 minutes. Separately, LipofectAMINE (30 μl/plate) was mixed with 0.75 ml OptiMEM and added to the pre-complexed DNA/PLUS mixture and incubated at room temperature for 15 minutes. The culture medium was then replaced with serum-free transfection medium (DMEM, 5 ml/plate). The DNA-PLUS-LipofectAMINE complex was then added to the plates (1.5 ml/plate) and mixed gently into the medium, followed by a 3 hour incubation at 37° C. in 5% CO2. At this time, the medium was supplemented with complete DMEM medium containing 20% FBS (6.5 ml/plate) and incubation was continued at 37° C. in 5% CO2. After a total of 24 hours at 37° C. in 5% CO2, the medium was replaced with complete DMEM medium fortified with 10 mM HEPES (10 ml/plate) and the cells were moved to an incubator maintained at 28-30° C. in a humidified atmosphere of 5% CO2 in air. The incubation continued for an additional 24 hours, typically at the lower temperature indicated above. A plasmid encoding Green Fluorescent Protein (i.e., GFP, 4 μg/plate) was used for transient GFP expression in CHO-K1 cells to estimate the transfection yields under the same conditions as used for GPCR-like receptor polynucleotides.
(§3) To assess expression, membranes were prepared from transfected CHO-K1 cells. Transfected cells were washed once with ice-cold Dulbecco's phosphate-buffered saline (i.e., PBS), 5 ml per 10 cm plate, and the cells were scraped into 5 ml of the same buffer. Cell suspensions from multiple plates were combined and centrifuged at 500×g for 10 minutes at 4° C. The cell pellet was reconstituted in ice-cold TEE (25 mM Tris, pH 7.4, 5 mM EGTA, 5 mM EDTA). Convenient aliquots were snap-frozen in liquid nitrogen and stored at −70° C. After thawing, the cells were homogenized and centrifuged at 500×g for 5 minutes at 4° C. to pellet nuclei and unbroken cells. Tile supernatant was centrifuged at 47,000×g for 30 minutes at 4° C. The membrane pellet was washed once with TEE, resuspended in 20 mM HEPES, pH 7.4, 100 mM NaCl, 10 mM MgCl2, 1 mM EDTA (assay buffer), distributed into aliquots of 0.5-1.0 ml, and frozen in liquid nitrogen. Membrane aliquots were stored at −70° C. Membrane protein concentration was determined using the BCA Protein Assay Reagent from Pierce (Rockford, Ill.), with bovine serum albumin (i.e., BSA) as a standard.
as §1

CEGPCR12h receptor = target: T2, CEGPCR12h receptor (Caenorhabditis elegans, UniProt Q20275); assay: [35S]GTPγS binding assay, CEGPCR12h expressed in CHO cells; type: biochemical, C. elegans; conditions: Table 11; peptides tested at 5 μM
T2 sequence (Q20275 1-402): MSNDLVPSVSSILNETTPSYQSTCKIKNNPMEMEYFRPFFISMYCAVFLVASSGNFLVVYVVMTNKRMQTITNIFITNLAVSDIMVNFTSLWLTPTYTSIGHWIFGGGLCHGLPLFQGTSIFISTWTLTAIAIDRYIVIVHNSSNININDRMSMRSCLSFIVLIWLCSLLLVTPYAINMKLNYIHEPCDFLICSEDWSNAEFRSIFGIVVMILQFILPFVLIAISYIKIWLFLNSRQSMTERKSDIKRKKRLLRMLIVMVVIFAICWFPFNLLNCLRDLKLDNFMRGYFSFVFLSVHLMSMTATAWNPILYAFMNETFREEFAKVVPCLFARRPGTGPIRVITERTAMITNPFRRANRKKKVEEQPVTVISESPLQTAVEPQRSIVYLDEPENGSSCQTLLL
Method: as §2, §3, §1

CEGPCR5 [3] = target: T3, CEGPCR5 (Caenorhabditis elegans, UniProt Q18179); assay: [35S]GTPγS binding assay, CEGPCR5 expressed in CHO cells; type: biochemical, C. elegans
T3 sequence (Q18179 1-402): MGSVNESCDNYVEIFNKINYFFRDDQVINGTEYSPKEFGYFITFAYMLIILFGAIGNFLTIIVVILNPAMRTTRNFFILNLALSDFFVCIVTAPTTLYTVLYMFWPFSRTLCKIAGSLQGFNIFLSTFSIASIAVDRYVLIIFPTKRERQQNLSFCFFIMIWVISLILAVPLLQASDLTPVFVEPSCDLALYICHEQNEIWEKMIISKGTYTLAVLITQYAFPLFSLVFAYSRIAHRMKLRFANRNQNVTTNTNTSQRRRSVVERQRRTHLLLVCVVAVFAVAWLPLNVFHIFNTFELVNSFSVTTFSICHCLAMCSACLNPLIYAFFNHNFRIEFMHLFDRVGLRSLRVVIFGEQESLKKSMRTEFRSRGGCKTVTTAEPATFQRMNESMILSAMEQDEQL

CEGPCR7 receptor = target: T4, CEGPCR7 receptor (Caenorhabditis elegans, UniProt Q18534); assay: [35S]GTPγS binding assay, membranes of CHO cells transfected with CEGPCR7; type: biochemical, C. elegans
T4 construct: Each of the 22 putative GPCR-like receptor clones appeared to contain a full-length coding region; expressed in transfected cells; host or cells: CHO-K1, transient, pCR3.1 clone, 37 to 28 C temperature shift
T4 sequence (Q18534 1-457): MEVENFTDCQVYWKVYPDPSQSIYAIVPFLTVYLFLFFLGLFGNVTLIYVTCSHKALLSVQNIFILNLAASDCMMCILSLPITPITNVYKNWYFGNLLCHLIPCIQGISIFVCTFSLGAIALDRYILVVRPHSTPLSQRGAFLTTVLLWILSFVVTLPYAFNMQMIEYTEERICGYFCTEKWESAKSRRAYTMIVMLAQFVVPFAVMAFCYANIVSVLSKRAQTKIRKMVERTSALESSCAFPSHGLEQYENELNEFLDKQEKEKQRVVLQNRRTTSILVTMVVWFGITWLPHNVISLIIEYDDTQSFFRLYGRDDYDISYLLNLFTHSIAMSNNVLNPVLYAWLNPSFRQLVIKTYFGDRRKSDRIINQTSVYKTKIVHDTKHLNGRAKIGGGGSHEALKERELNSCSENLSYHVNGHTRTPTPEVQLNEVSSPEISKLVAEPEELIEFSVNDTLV
Method: as §2, §3
Aliquots of cell membranes prepared as described above and stored at −70° C. were thawed, homogenized, and diluted into buffer containing 20 mM HEPES, pH 7.4, 10 mM MgCl2, 1 mM EDTA, and 100 mM NaCl at a concentration of 10-50 μg/ml.

CEGPCR5 [4] = target: T3, CEGPCR5; assay: [35S]GTPγS binding assay, CEGPCR5 expressed in CHO cells; type: biochemical, C. elegans; conditions: membranes from cells transfected and maintained at 37° C.
[5] = temperature shift to 28° C. 24 hours after transfection

Chain of human D2 receptor (P14416 whole entry): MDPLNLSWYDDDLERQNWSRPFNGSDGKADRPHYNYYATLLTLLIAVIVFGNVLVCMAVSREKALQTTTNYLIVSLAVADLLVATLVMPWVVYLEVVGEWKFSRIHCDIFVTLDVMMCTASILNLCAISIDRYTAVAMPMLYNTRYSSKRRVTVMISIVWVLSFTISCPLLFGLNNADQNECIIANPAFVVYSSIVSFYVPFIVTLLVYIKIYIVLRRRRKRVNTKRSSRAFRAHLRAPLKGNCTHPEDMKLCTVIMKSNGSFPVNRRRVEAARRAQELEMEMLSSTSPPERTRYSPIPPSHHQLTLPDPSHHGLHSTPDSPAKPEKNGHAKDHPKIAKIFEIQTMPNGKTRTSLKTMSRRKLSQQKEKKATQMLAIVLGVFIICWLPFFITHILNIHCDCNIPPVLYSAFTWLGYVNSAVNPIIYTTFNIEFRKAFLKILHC

In the case of `NCCc1ccc(O)c(O)c1` [dopamine], the “responses of the receptor to its ligand” value (human D2 receptor) is reported as “the same regardless of the transfection protocol used”.
ASEDALFGTMRF-NH2 [ASEDALFGTMRF-NH2] was tested, and the “receptor activation by matched ligand” value (CEGPCR16 receptor [1]) was “not detectably activated”, the EC50 (CEGPCR16 receptor [2]; Table 10, one range for the group of peptides, read-out: EC50 range) was 60 to 300 nM and the “ligand-induced [35S]GTPγS binding” value (CEGPCR16 receptor [2]; [5]) was “significant stimulation”.
For H-GLGPRPLRF-NH2 [GLGPRPLRF-NH2], the “activity at single concentration” value (CEGPCR12h receptor) was “active at”, the EC50 (CEGPCR5 [3]) was 1 to 10 nM and the EC50 (CEGPCR5 [3]; in words) was “low nanomolar range”. The “ligand-induced [35S]GTPγS binding” value (CEGPCR5 [3]; [5]) was “significant stimulation”, the EC50 (CEGPCR7 receptor; EC50, single values) was 207 nM and the EC50 (CEGPCR7 receptor; EC50 range, Table 7, one range for the group of peptides) was 200 to 250 nM. For the same compound, the “ligand-induced [35S]GTPγS binding, fold elevation in activity” value (CEGPCR7 receptor; cooling (28° C.) protocol) was 2.6 fold and the “receptor activation by matched ligand” value (CEGPCR5 [4]) was “not detectably activated”.
